From US9695180B2 (Incyte Corporation, priority 2014, dated 2017)

Target: LSD-1 enzyme (Homo sapiens (Human), UniProt O60341)
Experiment: LANCE LSD1/KDM1A demethylase assay (LSD1 histone demethylase biochemical assay)
Experimental: Example A: LSD1 Histone Demethylase Biochemical Assay
LANCE LSD1/KDM1A demethylase assay—10 μL of 1 nM LSD-1 enzyme (ENZO BML-SE544-0050) in the assay buffer (50 mM Tris, pH 7.5, 0.01% Tween-20, 25 mM NaCl, 5 mM DTT) were preincubated for 1 hour at 25° C. with 0.8 μL compound/DMSO dotted in black 384 well polystyrene plates. […] Reactions were stopped by addition of 10 μL 1× LANCE Detection Buffer (PerkinElmer CR97-100) supplemented with 1.5 nM Eu-anti-unmodified H3K4 Antibody (PerkinElmer TRF0404), and 225 nM LANCE Ultra Streptavidin (PerkinElmer TRF102) along with 0.9 mM Tranylcypromine-HCl (Millipore 616431). After stopping the reactions plates were incubated for 30 minutes and read on a PHERAstar FS plate reader (BMG Labtech).

Structure (SMILES)	IC50
CN1CCC[C@@H](COc2nc(-c3ccc(C#N)cc3)c(-c3ccc4scnc4c3)n3ccnc23)C1 [Example 55, 4-(5-(1,3-benzothiazol-5-yl)-8-{[(3R)-1-methylpiperidin-3-yl]methoxy}imidazo[1,2-a]pyrazin-6-yl)benzonitrile]	50 to 500 nM
CN(C)[C@H]1CCN(Cc2nc(-c3ccc(C#N)cc3)c(-c3ccc(N4CCCC4=O)nc3)n3ccnc23)C1 [Example 56, 4-{8-{[(3S)-3-(dimethylamino)pyrrolidin-1-yl]methyl}-5-[6-(2-oxopyrrolidin-1-yl)pyridin-3-yl]imidazo[1,2-a]pyrazin-6-yl}benzonitrile]	50 to 500 nM
CCN1CCC[C@@H](COc2nc(-c3ccc(C#N)cc3)c(-c3cnc4c(ccn4C)c3)n3ccnc23)C1 [Example 61, 4-[8-{[(3R)-1-ethylpiperidin-3-yl]methoxy}-5-(1-methyl-1H-pyrrolo[2,3-b]pyridin-5-yl)imidazo[1,2-a]pyrazin-6-yl]benzonitrile]	50 to 500 nM
CCN1CCC[C@@H](COc2nc(-c3ccc(C#N)cc3)c(-c3ccc4c(c3)oc(=O)n4C)n3ccnc23)C1 [Example 63, 4-[8-{[(3R)-1-ethylpiperidin-3-yl]methoxy}-5-(3-methyl-2-oxo-2,3-dihydro-1,3-benzoxazol-6-yl)imidazo[1,2-a]pyrazin-6-yl]benzonitrile]	50 to 500 nM
Cn1c(=O)oc2cc(-c3c(-c4ccc(C#N)cc4)nc(OC[C@@H]4CCCN(CCC#N)C4)c4nccn34)ccc21 [Example 64, 4-[8-{[(3R)-1-(2-cyanoethyl)piperidin-3-yl]methoxy}-5-(3-methyl-2-oxo-2,3-dihydro-1,3-benzoxazol-6-yl)imidazo[1,2-a]pyrazin-6-yl]benzonitrile]	50 to 500 nM
Cc1ccc(-c2c(-c3ccc(C#N)cc3)nc(OC[C@@H]3CCCN(C)C3)c3nccn23)cc1CN1CCN(S(C)(=O)=O)CC1 [Example 71, 4-(5-(4-methyl-3-{[4-(methylsulfonyl)piperazin-1-yl]methyl}phenyl)-8-{[(3R)-1-methylpiperidin-3-yl]methoxy}imidazo[1,2-a]pyrazin-6-yl)benzonitrile]	50 to 500 nM
CN1CCC[C@@H](COc2nc(-c3ccc(C#N)cc3)c(-c3ccc(CO)cc3)n3ccnc23)C1 [Example 74, 4-(5-[4-(hydroxymethyl)phenyl]-8-{[(3R)-1-methylpiperidin-3-yl]methoxy}imidazo[1,2-a]pyrazin-6-yl)benzonitrile]	50 to 500 nM
CN1CCC[C@@H](COc2nc(-c3ccc(C#N)cc3)c(-c3ccc(CN4CCOCC4)cc3)n3ccnc23)C1 [Example 75, 4-{8-{[(3R)-1-methylpiperidin-3-yl]methoxy}-5-[4-(morpholin-4-ylmethyl)phenyl]imidazo[1,2-a]pyrazin-6-yl}benzonitrile]	50 to 500 nM
COC(=O)N(C)c1ccc(-c2c(-c3ccc(C#N)cc3)nc(OC[C@@H]3CCCN(C)C3)c3nccn23)cc1 [Example 77]	50 to 500 nM
CN1CCC[C@@H](COc2nc(-c3ccc(C#N)cc3)c(-c3ccc(CN4CCOCC4)c(F)c3)n3ccnc23)C1 [Example 82, 4-(5-[3-fluoro-4-(morpholin-4-ylmethyl)phenyl]-8-{[(3R)-1-methylpiperidin-3-yl]methoxy}imidazo[1,2-a]pyrazin-6-yl)benzonitrile]	50 to 500 nM
CN1CCC[C@@H](COc2nc(-c3ccc(C#N)cc3)c(-c3cc(F)c(CO)c(F)c3)n3ccnc23)C1 [Example 83, 4-(5-[3,5-difluoro-4-(hydroxymethyl)phenyl]-8-{[(3R)-1-methylpiperidin-3-yl]methoxy}imidazo[1,2-a]pyrazin-6-yl)benzonitrile]	50 to 500 nM
COc1ncc(-c2c(-c3ccc(C#N)cc3)nc(OC[C@@H]3CCCN(C)C3)c3nccn23)cc1F [Example 84, 4-(5-(5-fluoro-6-methoxypyridin-3-yl)-8-{[(3R)-1-methylpiperidin-3-yl]methoxy}imidazo[1,2-a]pyrazin-6-yl)benzonitrile]	50 to 500 nM
Cc1cc(-c2c(-c3ccc(C#N)cc3)nc(OC[C@@H]3CCCN(C)C3)c3nccn23)ccc1C(C)O (stereo partly drawn) [Example 86, 4-(5-[4-(1-hydroxyethyl)-3-methylphenyl]-8-{[(3R)-1-methylpiperidin-3-yl]methoxy}imidazo[1,2-a]pyrazin-6-yl)benzonitrile]	50 to 500 nM
CN1CCC[C@@H](COc2nc(-c3ccc(C#N)cc3)c(-c3ccc(CN4CCOCC4)cc3F)n3ccnc23)C1 [Example 89, 4-(5-[2-fluoro-4-(morpholin-4-ylmethyl)phenyl]-8-{[(3R)-1-methylpiperidin-3-yl]methoxy}imidazo[1,2-a]pyrazin-6-yl)benzonitrile]	50 to 500 nM
CN(C)[C@H]1CCN(c2nc(-c3ccc(C#N)cc3)c(-c3ccc(N4CCCC4=O)nc3)n3ccnc23)C1 [Example 104, 4-{8-[(3S)-3-(dimethylamino)pyrrolidin-1-yl]-5-[6-(2-oxopyrrolidin-1-yl)pyridin-3-yl]imidazo[1,2-a]pyrazin-6-yl}benzonitrile]	50 to 500 nM
CN1C(=O)CCc2ccc(-c3c(-c4ccc(C#N)cc4)nc(N4CCC(N(C)C)CC4)c4nccn34)cc21 [Example 108, 4-[8-[4-(dimethylamino)piperidin-1-yl]-5-(1-methyl-2-oxo-1,2,3,4-tetrahydroquinolin-7-yl)imidazo[1,2-a]pyrazin-6-yl]benzonitrile]	50 to 500 nM
C[C@H](O)c1nc2cc(-c3c(-c4ccc(C#N)cc4)nc(N4CCC(N(C)C)CC4)c4nccn34)ccc2n1C [Example 114, 4-(8-[4-(dimethylamino)piperidin-1-yl]-5-{2-[(1S)-1-hydroxyethyl]-1-methyl-1H-benzimidazol-5-yl}imidazo[1,2-a]pyrazin-6-yl)benzonitrile]	50 to 500 nM
COc1cc(-c2c(-c3ccc(C#N)cc3)nc(N3CCC(N(C)C)CC3)c3nccn23)cnc1C [Example 116, 4-[8-[4-(dimethylamino)piperidin-1-yl]-5-(5-methoxy-6-methylpyridin-3-yl)imidazo[1,2-a]pyrazin-6-yl]benzonitrile]	50 to 500 nM
Cc1ncc(-c2c(-c3ccc(C#N)cc3)nc(OC[C@@H]3CCCN(C)C3)c3nccn23)cc1C#N [Example 117, 5-(6-(4-cyanophenyl)-8-{[(3R)-1-methylpiperidin-3-yl]methoxy}imidazo[1,2-a]pyrazin-5-yl)-2-methylnicotinonitrile]	50 to 500 nM
